Data as given in PubChem BioAssay (NCI).
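In this assay, cells in 96-well plates receive the compound at five concentrations for 48 hours. Endpoints are linearly interpolated between the surrounding concentrations. GI50 is the concentration that inhibits growth by half. TGI: total growth inhibition.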

Assays:
Assay in all cases: DTP human tumour cell line panel, 48 h
CCRF-CEM leukemia = tested on: CCRF-CEM leukemia
IGROV1 ovarian = tested on: IGROV1 ovarian
NCI-H226 lung = tested on: NCI-H226 lung
NCI-H522 lung = tested on: NCI-H522 lung
OVCAR-3 ovarian = tested on: OVCAR-3 ovarian
OVCAR-8 ovarian = tested on: OVCAR-8 ovarian
SN12C renal = tested on: SN12C renal
SNB-19 CNS = tested on: SNB-19 CNS
SW-620 colon = tested on: SW-620 colon
TK-10 renal = tested on: TK-10 renal

SMILES	GI50 (CCRF-CEM leukemia) [µM]	TGI (CCRF-CEM leukemia) [µM]	GI50 (IGROV1 ovarian) [µM]	TGI (IGROV1 ovarian) [µM]	GI50 (NCI-H226 lung) [µM]	TGI (NCI-H226 lung) [µM]	GI50 (NCI-H522 lung) [µM]	TGI (NCI-H522 lung) [µM]	GI50 (OVCAR-3 ovarian) [µM]	TGI (OVCAR-3 ovarian) [µM]	GI50 (OVCAR-8 ovarian) [µM]	TGI (OVCAR-8 ovarian) [µM]	GI50 (SN12C renal) [µM]	TGI (SN12C renal) [µM]	GI50 (SNB-19 CNS) [µM]	TGI (SNB-19 CNS) [µM]	GI50 (SW-620 colon) [µM]	TGI (SW-620 colon) [µM]	GI50 (TK-10 renal) [µM]	TGI (TK-10 renal) [µM]
CCn1cnc2c(Nc3cccc(Cl)c3)nc(N[C@@H]3CCCC[C@@H]3N)nc21	2.88	9.66	2	8.58	2	5.95	1.64	3.8	1.18	4.4	2.35	9.53	2.08	7.62	2.07	8.17	1.78	5.77	1.95	5.06
CC12CCC[C@@](C)(C(=O)OC3OC(CO)C(O)C(O)C3O)[C@H]1CCC13CC4CC(OC4(CO)[C@H]1O)[C@@H]23 (stereo not given in full)	–	> 100	–	> 100	–	> 100	–	> 100	–	> 100	–	> 100	–	> 100	–	> 100	–	31	–	> 100
COC1=CC(c2ccc[nH]2)=N/C1=C\c1[nH]c(C)c(C(=O)CCCCC(=O)Nc2ccccc2)c1C	0.261	1.43	0.811	2.07	1.85	6.11	1.32	3.46	1.21	2.51	2.02	4.82	1.67	4.38	6.09	20.8	1.02	2.34	1.66	3.38
CCCc1nc2c(C)cc(-c3nc4ccccc4n3C)cc2n1Cc1ccc(-c2ccccc2C(=O)O)cc1	22.7	> 100	43.5	> 100	32.4	> 100	22	46.5	14.7	37.3	35.4	> 100	33.3	> 100	39.4	> 100	49.3	> 100	55.8	> 100
CCOC(=O)c1sc(=S)c2c(C(=O)OCC)c(C(=O)OCC)sc2c1C(=O)OCC	19.1	61.7	13.4	29.8	10.9	26.7	10.6	26.4	16	68	17.8	40	11.2	26.7	32.2	> 100	23.7	56.4	5.85	39.4
COc1ccc(/C(C)=N/OC(=O)c2c(-c3ccccc3Cl)noc2C)cc1CN1CCOCC1	–	> 100	–	65.6	–	> 100	–	48.3	–	68.4	–	> 100	–	51.3	–	46.2	–	> 100	–	> 100
CC1=C(C(=O)Nc2ccc(Cl)c(Cl)c2)C(c2ccco2)C(C(=O)Nc2ccc(Cl)c(Cl)c2)=C(C)N1	–	27.7	–	32.6	–	25.6	–	26.7	–	20.2	–	24.3	–	23.9	–	25.8	–	28.3	–	18.9
COC(=O)CCC/C=C\C[C@H]1C=CC(=O)/C1=C/C[C@@H](O)C/C=C\CC(F)(F)F	0.345	5.27	2.78	7.6	2.08	4.1	1.06	2.57	1.31	3.49	3.3	13.4	2.53	7.38	2.99	14.2	1.89	12.4	3.22	10.8
CCOC(=O)c1sc(Nc2ccc(Cl)cc2)nc1C	2.64	9.37	1.52	4.26	1.76	4.46	1.18	3.57	1.69	3.92	2.89	7.73	1.75	4.81	2.08	6.25	2.6	7.54	2.42	5.08
COc1ccc2c(c1)CC[C@@H]1[C@@H]2CC[C@]2(C)C(c3ccco3)=C(C=O)C[C@@H]12	1.86	4.85	27	78	21.6	63.5	21.1	> 100	2.08	12.4	31.1	74.2	23.1	95.2	9.3	> 100	6.26	> 100	4.93	21.2
CCN(CC)C(=O)COc1ccc(Br)cc1Br	–	> 100	–	–	–	> 100	–	> 100	–	> 100	–	–	–	> 100	–	> 100	–	> 100	–	> 100
CSc1nc2sc3cc(Cl)ccc3n2c(=N)c1C#N	–	> 100	> 49.2	> 88.4	12.8	> 100	62.7	> 100	11.8	> 100	17.4	> 100	> 100	> 100	> 64.2	> 100	38.2	> 100	14.1	> 73.3
COc1ccc(-c2ccc(C3CC(c4ccc(Cl)cc4)=NN3)o2)c([N+](=O)[O-])c1 (stereo not given)	> 100	> 100	> 100	> 100	> 100	> 100	> 100	> 100	> 100	> 100	> 100	> 100	–	–	> 100	> 100	> 100	> 100	> 100	> 100
